Measured values reported in US11965159B2, “Compositions and methods for regulating proteins and nucleic acids activities” (THE BROAD INSTITUTE, INC., priority 2019, dated 2024).

Experiments:
[1] = molecular target: SpCas9 (Streptococcus pyogenes serotype M1, UniProt Q99ZW2); experiment: Cas9 nuclease activity in EGFP disruption assay in U2OS.eGFP.PEST cells; format: cell-based; parameters: host or cells: U2OS.eGFP-PEST; conditions: 10, 15, 20 μM, 24 h
Experimental: Cas9 Nuclease activity in EGFP disruption assay. Approximately 200,000 U2OS.eGFP-PEST cells were nucleofected with 400 ng of SpCas9 (Addgene Plasmid #43861) and 40 ng of sgRNA (pFYF1320 EGFP Site #1, Addgene Plasmid #47511) expressing plasmids along with a Td-tomato-encoding plasmid using the SE Cell Line 4D-Nucleofector™ X Kit (Lonza™) according to the manufacturer's protocol. Approximately 20,000 transfected cells/well in 3 replicates were plated in a 96-well plate (Corning® 3904). Cells were allowed to grow in the indicated amount of compound or DMSO for 24 h post transfection. Cells were then fixed using 4% paraformaldehyde and imaged with the HCS NuclearMask™ Blue Stain (Life Technologies™) as the nuclear counter-staining agent. Imaging was performed with an IXM 137204 ImageXpress® Automated High Content Microscope (Molecular Devices™) at 10× magnification under three excitation channels (blue, green and red) with 9 acquiring sites per well. Images were analyzed in the MetaXpress® software and data were plotted using GraphPad Prism 6. The Z′-value was calculated following the formula: […]
Cas9 Nuclease activity in EGFP disruption assay. In some embodiments, a quantitative human cell-based reporter assay that enables rapid quantitation of targeted nuclease activities is used to characterize off-target cleavage of CRISPR protein-based RNA guided endonucleases. In this assay, the activities of nucleases targeted to a single integrated EGFP reporter gene can be quantified by assessing loss of fluorescence signal in human U2OS.EGFP cells caused by inactivating frameshift insertion/deletion (indel) mutations introduced by error prone non-homologous end-joining (NHEJ) repair of nuclease-induced double-stranded breaks (DSBs).
Approximately 200,000 U2OS.eGFP-PEST cells were nucleofected with 400 ng of SpCas9 (Addgene Plasmid #43861) and 40 ng of sgRNA (pFYF1320 EGFP Site #1, Addgene Plasmid #47511) expressing plasmids along with a Td-tomato-encoding plasmid using the SE Cell Line 4D-Nucleofector™ X Kit (Lonza™) according to the manufacturer's protocol. […]

[2] = molecular target: T1, SpCas9:gRNA complex (Streptococcus pyogenes serotype M1, UniProt Q99ZW2); experiment: Compound-Cas9 interaction in Bio-Layer Interferometry (BLI); format: binding; conditions: excess (10×) of biotin to BRD7087 loading
T1 construct: His6 (N, cleaved yes); made in house; host or cells: E. coli BL21 Star (DE3)
T1 sequence (Q99ZW2 whole entry, one chain of several): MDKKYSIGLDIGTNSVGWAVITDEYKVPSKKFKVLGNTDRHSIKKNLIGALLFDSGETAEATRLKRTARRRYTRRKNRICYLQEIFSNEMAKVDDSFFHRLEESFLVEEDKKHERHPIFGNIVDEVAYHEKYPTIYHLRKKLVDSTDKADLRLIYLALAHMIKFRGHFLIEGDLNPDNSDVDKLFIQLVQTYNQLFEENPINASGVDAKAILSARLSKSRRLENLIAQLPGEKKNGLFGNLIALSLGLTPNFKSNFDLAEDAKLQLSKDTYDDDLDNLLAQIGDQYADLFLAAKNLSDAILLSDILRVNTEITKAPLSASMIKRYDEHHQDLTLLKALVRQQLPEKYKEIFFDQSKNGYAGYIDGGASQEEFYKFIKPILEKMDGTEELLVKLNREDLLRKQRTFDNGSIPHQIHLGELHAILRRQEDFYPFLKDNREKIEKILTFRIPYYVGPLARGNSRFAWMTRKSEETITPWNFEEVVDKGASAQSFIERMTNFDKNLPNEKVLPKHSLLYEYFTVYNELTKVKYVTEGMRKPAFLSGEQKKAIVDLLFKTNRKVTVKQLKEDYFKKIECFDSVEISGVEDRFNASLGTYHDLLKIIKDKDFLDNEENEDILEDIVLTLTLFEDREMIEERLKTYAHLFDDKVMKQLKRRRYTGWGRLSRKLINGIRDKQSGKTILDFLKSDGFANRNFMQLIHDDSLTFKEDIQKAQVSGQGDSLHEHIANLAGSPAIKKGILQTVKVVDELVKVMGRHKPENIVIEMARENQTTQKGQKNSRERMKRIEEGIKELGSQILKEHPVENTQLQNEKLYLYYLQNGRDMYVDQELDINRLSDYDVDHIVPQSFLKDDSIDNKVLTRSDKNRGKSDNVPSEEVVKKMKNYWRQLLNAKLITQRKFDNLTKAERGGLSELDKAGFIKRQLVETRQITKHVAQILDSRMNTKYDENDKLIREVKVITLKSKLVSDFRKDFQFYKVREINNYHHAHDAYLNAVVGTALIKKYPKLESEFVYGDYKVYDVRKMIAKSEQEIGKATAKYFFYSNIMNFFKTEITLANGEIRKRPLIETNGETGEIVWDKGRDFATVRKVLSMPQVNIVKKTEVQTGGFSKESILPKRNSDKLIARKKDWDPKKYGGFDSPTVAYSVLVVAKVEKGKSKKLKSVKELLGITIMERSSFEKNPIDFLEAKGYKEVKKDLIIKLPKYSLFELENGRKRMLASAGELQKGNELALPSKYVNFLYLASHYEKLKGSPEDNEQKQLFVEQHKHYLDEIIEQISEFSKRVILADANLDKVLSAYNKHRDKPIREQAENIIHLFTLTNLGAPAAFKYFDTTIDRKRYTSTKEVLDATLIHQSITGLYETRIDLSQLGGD
Experimental: Compound-Cas9 interaction in BLI. The experiments were performed in a 96-well format with 180 μL reaction volume using biotinylated compound BRD7087-Biotin and streptavidin sensors. 1 μM of the biotinylated compound was loaded onto the sensors for 180s in 20 mM Tris buffer of pH 7.4, 100 mM KCl, 5 mM MgCl2, 1 mM DTT, 0.01% Tween. The compound loaded sensors were then allowed to associate with the different concentration of SpCas9:gRNA complex (1-0.15 μM) for 300s followed by dissociation in the reaction buffer. Reference sensor was loaded with compound and allowed to associate and dissociate in the reaction buffer alone. The response curves were fitted with a 2:1 stoichiometric model and a global fit steady-state analysis were performed using manufacturer inbuilt protocol. The experiment was performed in three replicates.
The competitive experiments were performed using Biotin-linker fragment. In this experiment, streptavidin sensors were pre-incubated with 10 μM of Biotin-linker before dipping into a solution of either 1 μM BRD7087-Biotin or reaction buffer alone. Sensors were then allowed to associate with different concentration of SpCas9:gRNA complex or buffer alone.
Compound-Cas9 interaction in BLL The experiments were performed in a 96-well format with 180 μL reaction volume using biotinylated compound BRD7087-Biotin and streptavidin sensors. […]

Chain of SpCas9 (Q99ZW2 whole entry): as the sequence (Q99ZW2 whole entry, one chain of several) above

Structure (SMILES)	potency of stereoisomers in EGFP-disruption assay relative to BRD7087 / BRD5779 [1]	BLI response signal in competitive experiment [2]
OC[C@H]1Nc2ccc(-c3cccc(F)c3)cc2[C@@H]2[C@H]1CCN2Cc1ccncc1 [BRD0750, ((3aS,4S,9bS)-8-(3-Fluorophenyl)-1-(pyridin-4-ylmethyl)-2,3,3a,4,5,9b-hexahydro-1H-pyrrolo[3,2-c]quinolin-4-yl)methanol]	less potent	–
OC[C@@H]1Nc2ccc(-c3cccc(F)c3)cc2[C@H]2[C@@H]1CCN2Cc1ccncc1 [BRD2161, ((3aR,4R,9bR)-8-(3-Fluorophenyl)-1-(pyridin-4-ylmethyl)-2,3,3a,4,5,9b-hexahydro-1H-pyrrolo[3,2-c]quinolin-4-yl)methanol]	less potent	–
O=C(CCCC[C@@H]1SC[C@@H]2NC(=O)N[C@@H]21)NCCOCCOCCOCCC(=O)Nc1cccc(-c2ccc3c(c2)[C@H]2[C@H](CCN2Cc2ccncc2)[C@@H](CO)N3)c1 [biotin-conjugate of BRD7087, N-(2-(2-(2-(3-((3-((3aR,4S,9bR)-4-(Hydroxymethyl)-1-(pyridin-4-ylmethyl)-2,3,3a,4,5,9b-hexahydro-1H-pyrrolo[3,2-c]quinolin-8-yl)phenyl)amino)-3-oxopropoxy)ethoxy)ethoxy)ethyl)-5-((3aS,4S,6aR)-2-oxohexahydro-1H-thieno[3,4-d]imidazol-4-yl)pentanamide]	–	no substantial response signal
OC[C@@H]1Nc2ccc(-c3cccc(F)c3)cc2[C@@H]2[C@H]1CCN2Cc1ccncc1 [BRD5039, ((3aS,4R,9bS)-8-(3-Fluorophenyl)-1-(pyridin-4-ylmethyl)-2,3,3a,4,5,9b-hexahydro-1H-pyrrolo[3,2-c]quinolin-4-yl)methanol]	equipotent as BRD7087	–
